Reference: patent US10183943B2, “Heterocyclic compounds and their use in preventing or treating bacterial infections” (MUTABILIS, priority 2015, dated 2019)

Assays:
[1] = biological target: T1, TEM-1 (Escherichia coli, UniProt P62593); assay: β-lactamase inhibitory activity, determination of IC50 (nitrocefin hydrolysis); assay type: biochemical
T1 construct: made in house; host or cells: E. coli

[2] = biological target: T2, SHV-1 (Klebsiella pneumoniae, UniProt P0AD64); assay: as above; assay type: biochemical
T2 construct: made in house; host or cells: E. coli
T2 sequence (P0AD64 22-286): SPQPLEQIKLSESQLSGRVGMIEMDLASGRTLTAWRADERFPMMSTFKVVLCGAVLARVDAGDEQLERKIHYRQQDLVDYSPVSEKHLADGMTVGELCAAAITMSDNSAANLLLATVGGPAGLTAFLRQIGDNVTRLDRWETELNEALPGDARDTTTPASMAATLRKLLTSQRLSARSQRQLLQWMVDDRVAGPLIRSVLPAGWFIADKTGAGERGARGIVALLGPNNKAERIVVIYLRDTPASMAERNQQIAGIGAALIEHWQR

[3] = biological target: T3, CTX-M-15 (Escherichia coli, UniProt Q9EXV5); assay: as above; assay type: biochemical; settings: class (A); nitrocefin 200 μM, 30 min pre-incubation; read-out: IC50 β-lactamase CTX-M-15
T3 construct: made in house; host or cells: E. coli
T3 sequence (Q9EXV5 entry or part of it): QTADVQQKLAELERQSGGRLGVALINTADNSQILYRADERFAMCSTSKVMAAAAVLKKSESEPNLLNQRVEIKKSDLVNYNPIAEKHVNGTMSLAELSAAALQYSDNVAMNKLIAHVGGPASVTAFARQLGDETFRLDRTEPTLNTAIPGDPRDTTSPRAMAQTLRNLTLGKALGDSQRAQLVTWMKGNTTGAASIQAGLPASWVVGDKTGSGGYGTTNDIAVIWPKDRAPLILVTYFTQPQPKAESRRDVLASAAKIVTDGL

[4] = biological target: T4, KPC-2 (Klebsiella pneumoniae, UniProt Q9F663); assay: as above; assay type: biochemical; settings: class (A); nitrocefin 200 μM, 30 min pre-incubation; read-out: IC50 β-lactamase KPC-2
T4 construct: made in house; host or cells: E. coli
T4 sequence (Q9F663 25-293 limits assumed): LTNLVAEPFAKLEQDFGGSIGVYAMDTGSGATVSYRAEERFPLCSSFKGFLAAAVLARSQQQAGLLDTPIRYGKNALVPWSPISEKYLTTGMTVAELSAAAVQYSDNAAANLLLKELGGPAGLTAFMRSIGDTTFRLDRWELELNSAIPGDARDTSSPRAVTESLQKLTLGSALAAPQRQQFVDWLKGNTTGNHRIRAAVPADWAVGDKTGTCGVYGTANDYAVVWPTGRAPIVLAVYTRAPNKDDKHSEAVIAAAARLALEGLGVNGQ

[5] = biological target: T5, OXA-1 (Escherichia coli, UniProt P13661); assay: as above; assay type: biochemical; settings: class (D); nitrocefin 200 μM, 30 min pre-incubation; read-out: IC50 β-lactamase OXA-1
T5 construct: made in house; host or cells: E. coli
T5 sequence (P13661 26-276): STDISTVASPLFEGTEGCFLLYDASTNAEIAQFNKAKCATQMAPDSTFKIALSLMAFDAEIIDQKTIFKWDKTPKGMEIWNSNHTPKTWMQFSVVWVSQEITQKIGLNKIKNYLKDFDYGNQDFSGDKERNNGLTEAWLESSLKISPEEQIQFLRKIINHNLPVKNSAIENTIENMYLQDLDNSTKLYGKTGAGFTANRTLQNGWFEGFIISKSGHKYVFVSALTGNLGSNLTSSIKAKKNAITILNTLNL

[6] = biological target: T6, OXA-11 (Pseudomonas aeruginosa, UniProt Q06778); assay: as above; assay type: biochemical
T6 construct: made in house; host or cells: E. coli
T6 sequence (Q06778 21-266): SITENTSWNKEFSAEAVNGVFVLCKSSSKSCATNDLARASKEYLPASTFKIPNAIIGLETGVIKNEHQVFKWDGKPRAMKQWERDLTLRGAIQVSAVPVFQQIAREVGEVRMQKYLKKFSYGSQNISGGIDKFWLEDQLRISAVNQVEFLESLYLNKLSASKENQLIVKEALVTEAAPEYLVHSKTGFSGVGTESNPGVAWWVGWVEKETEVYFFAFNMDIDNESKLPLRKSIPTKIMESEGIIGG

[7] = biological target: T7, OXA-15 (Pseudomonas aeruginosa, UniProt Q51574); assay: biochemical
T7 construct: made in house; host or cells: E. coli
T7 sequence (Q51574 22-275): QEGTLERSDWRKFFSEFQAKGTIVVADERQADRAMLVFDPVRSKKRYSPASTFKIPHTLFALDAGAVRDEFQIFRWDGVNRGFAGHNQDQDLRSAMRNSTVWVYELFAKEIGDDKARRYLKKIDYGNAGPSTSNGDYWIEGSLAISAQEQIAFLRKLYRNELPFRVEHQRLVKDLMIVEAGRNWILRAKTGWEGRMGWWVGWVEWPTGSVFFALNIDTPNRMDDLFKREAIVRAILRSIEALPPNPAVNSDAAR

[8] = biological target: T8, OXA-48 (Klebsiella pneumoniae, UniProt Q6XEC0); assay: β-lactamase inhibitory activity, determination of IC50 (nitrocefin hydrolysis); assay type: biochemical; settings: class (D); nitrocefin 200 μM, 30 min pre-incubation; read-out: IC50 β-lactamase OXA-48
T8 construct: made in house; host or cells: E. coli
T8 sequence (Q6XEC0 23-265 limits assumed): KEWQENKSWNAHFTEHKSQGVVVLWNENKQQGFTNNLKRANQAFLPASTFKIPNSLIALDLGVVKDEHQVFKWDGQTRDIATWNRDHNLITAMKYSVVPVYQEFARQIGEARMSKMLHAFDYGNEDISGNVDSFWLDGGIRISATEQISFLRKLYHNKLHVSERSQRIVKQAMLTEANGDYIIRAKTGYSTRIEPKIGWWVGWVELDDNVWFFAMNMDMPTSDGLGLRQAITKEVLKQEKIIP

[9] = tested on: E. cloacae P99 (AmpC); assay: MIC of compounds alone, broth microdilution; assay type: cell-based; settings: Enterobacter cloacae; strain P99 (E. cloacae); read-out: MIC compounds of the invention alone
How it was run: (§1)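 CLSI broth microdilution with compounds alone, spotted from DMSO, against log-phase bacteria at 5×10^5 cfu/mL in cation-adjusted Mueller-Hinton broth. Plates incubated 16-20 h at 35 °C in ambient air; MIC was the lowest concentration preventing visible growth.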

[10] = tested on: E. coli 190317 (TEM-1, SHV-12, CTX-M-15, OXA-1); assay: MIC of compounds alone, broth microdilution; assay type: cell-based; settings: Escherichia coli, read-out: MIC compounds of the invention alone
How it was run: as §1

[11] = tested on: K. pneumoniae 6299 (TEM-1, SHV-11, OXA-163); assay: MIC of compounds alone, broth microdilution; assay type: cell-based; settings: Klebsiella pneumoniae; strain 6299 (K. pneumoniae); read-out: MIC compounds of the invention alone
How it was run: as §1

[12] = tested on: K. pneumoniae BAA-1898 (TEM-1, SHV-11, SHV-12, KPC-2); assay: MIC of compounds alone, broth microdilution; assay type: cell-based; settings: Klebsiella pneumoniae, BAA1898; strain BAA-1898 (K. pneumoniae); read-out: MIC compounds of the invention alone
How it was run: as §1

[13] = tested on: K. pneumoniae UFR39 (CTX-M-15, NDM-1); assay: MIC of compounds alone, broth microdilution; assay type: cell-based; settings: Klebsiella pneumoniae; strain UFR39 (K. pneumoniae); read-out: MIC compounds of the invention alone
How it was run: as §1

[14] = tested on: P. aeruginosa CIP107051 (TEM-24); assay: MIC of compounds alone, broth microdilution; assay type: cell-based; settings: Pseudomonas aeruginosa; strain CIP107051 (P. aeruginosa); read-out: MIC compounds of the invention alone
How it was run: as §1

[15] = biological target: AmpC (P99) (Enterobacter cloacae, UniProt P05364); assay: β-lactamase inhibitory activity, determination of IC50 (nitrocefin hydrolysis)
AmpC (P99), sequence (P05364 21-381): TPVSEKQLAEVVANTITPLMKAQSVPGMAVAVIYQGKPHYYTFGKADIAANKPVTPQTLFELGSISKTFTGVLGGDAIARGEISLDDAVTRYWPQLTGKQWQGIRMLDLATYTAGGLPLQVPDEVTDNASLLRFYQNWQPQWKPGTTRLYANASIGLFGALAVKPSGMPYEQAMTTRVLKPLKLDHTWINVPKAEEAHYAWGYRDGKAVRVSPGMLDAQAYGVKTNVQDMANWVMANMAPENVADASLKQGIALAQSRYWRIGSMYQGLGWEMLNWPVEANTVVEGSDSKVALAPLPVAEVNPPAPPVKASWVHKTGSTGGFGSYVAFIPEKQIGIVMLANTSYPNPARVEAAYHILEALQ

[16] = biological target: AmpC P. aeruginosa (Pseudomonas aeruginosa, UniProt P24735); assay: as above
AmpC P. aeruginosa, sequence (P24735 27-397): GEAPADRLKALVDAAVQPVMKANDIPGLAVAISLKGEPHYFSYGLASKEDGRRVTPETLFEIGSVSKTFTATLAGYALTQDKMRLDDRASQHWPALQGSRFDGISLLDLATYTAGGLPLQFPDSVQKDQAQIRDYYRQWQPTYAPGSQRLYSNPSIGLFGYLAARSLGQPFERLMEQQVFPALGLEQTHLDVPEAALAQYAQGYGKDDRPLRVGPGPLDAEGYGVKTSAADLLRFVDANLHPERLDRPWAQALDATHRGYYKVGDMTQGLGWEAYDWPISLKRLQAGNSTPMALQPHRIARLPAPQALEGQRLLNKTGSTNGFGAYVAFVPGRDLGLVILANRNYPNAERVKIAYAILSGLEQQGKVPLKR

T1 sequence (P62593 24-286 limits assumed): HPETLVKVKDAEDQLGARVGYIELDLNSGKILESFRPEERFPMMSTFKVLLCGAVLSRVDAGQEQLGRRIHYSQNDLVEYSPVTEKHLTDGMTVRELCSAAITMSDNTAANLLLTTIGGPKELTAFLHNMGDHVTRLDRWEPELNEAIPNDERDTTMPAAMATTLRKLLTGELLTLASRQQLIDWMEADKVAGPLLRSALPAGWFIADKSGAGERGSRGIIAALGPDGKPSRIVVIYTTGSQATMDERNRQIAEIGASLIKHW

SMILES | IC50 [1] | IC50 [2] | IC50 [3] | IC50 [4] | IC50 [5] | IC50 [6] | IC50 [7] | IC50 [8] | MIC [9] | MIC [10] | MIC [11] | MIC [12] | MIC [13] | MIC [14] | IC50 [15] | IC50 [16]
O=C1N2CC(c3nc4cccnc4s3)=CC(C2)N1OS(=O)(=O)[O-].[Na+] (stereo not drawn) [Example 40, Sodium (7-oxo-3-thiazolo[5,4-b]pyridin-2-yl-1,6-diazabicyclo[3.2.1]oct-3-en-6-yl) sulfate] | 0.35 nM | 1.1 nM | 1.2 nM | 2.2 nM | 120 nM | 61 nM | 77 nM | 2.7 nM | > 32 µg/mL | > 32 µg/mL | > 32 µg/mL | > 32 µg/mL | > 32 µg/mL | > 32 µg/mL | 10 nM | 230 nM
O=C1N2CC(c3ccccn3)=CC(C2)N1OS(=O)(=O)[O-].[Na+] (stereo not drawn) [Example 42, Sodium [7-oxo-3-(2-pyridyl)-1,6-diazabicyclo[3.2.1]oct-3-en-6-yl]sulfate] | 2.4 nM | 2.9 nM | 0.89 nM | 8 nM | 640 nM | 120 nM | 370 nM | 31 nM | > 32 µg/mL | 16 µg/mL | > 32 µg/mL | 32 µg/mL | 32 µg/mL | > 32 µg/mL | 25 nM | 75 nM
O=C1N2CC(c3cn[nH]c3)=CC(C2)N1OS(=O)(=O)[O-].[Na+] (stereo not drawn) [Example 43, Sodium [7-oxo-3-(1H-pyrazol-4-yl)-1,6-diazabicyclo[3.2.1]oct-3-en-6-yl] sulfate] | 0.77 nM | 1.7 nM | 2.9 nM | 30 nM | 1200 nM | 370 nM | 540 nM | 9.4 nM | > 32 µg/mL | > 32 µg/mL | > 32 µg/mL | > 32 µg/mL | > 32 µg/mL | > 32 µg/mL | 180 nM | 440 nM
